This data set deals with CCRIS mutagenicity, Ames/micronucleus/aberration tests. The data set can be described thus: CCRIS mutagenicity studies.
[1] abbreviates: Test System: AMES SALMONELLA TYPHIMURIUM, Strain/Indicator: TA98, Metabolic Activation: NONE, Method: STANDARD PLATE.
Where [2] appears, read: Test System: AMES SALMONELLA TYPHIMURIUM, Strain/Indicator: TA100, Metabolic Activation: NONE, Method: STANDARD PLATE.
The mark [3] stands for this setting: Test System: AMES SALMONELLA TYPHIMURIUM, Strain/Indicator: TA98, Metabolic Activation: NONE, Method: PREINCUBATION
Where [4] appears, read: Test System: AMES SALMONELLA TYPHIMURIUM, Strain/Indicator: TA100, Metabolic Activation: NONE, Method: PREINCUBATION
[5] abbreviates: Test System: AMES SALMONELLA TYPHIMURIUM, Strain/Indicator: TA1537, Metabolic Activation: NONE, Method: PREINCUBATION
The mark [6] stands for this setting: Test System: AMES SALMONELLA TYPHIMURIUM, Strain/Indicator: TA97, Metabolic Activation: NONE, Method: STANDARD PLATE.
The mark [7] stands for this setting: Test System: AMES SALMONELLA TYPHIMURIUM, Strain/Indicator: TA97, Metabolic Activation: RAT LIVER S-9, AROCLOR 1254, Method: STANDARD PLATE.
Setting [8] is: Test System: AMES SALMONELLA TYPHIMURIUM, Strain/Indicator: TA100, Metabolic Activation: RAT LIVER S-9, AROCLOR 1254, Method: STANDARD PLATE.
The mark [9] stands for this setting: Test System: AMES SALMONELLA TYPHIMURIUM, Strain/Indicator: TA102, Metabolic Activation: NONE, Method: STANDARD PLATE.
The mark [10] stands for this setting: Test System: AMES SALMONELLA TYPHIMURIUM, Strain/Indicator: TA102, Metabolic Activation: RAT LIVER S-9, AROCLOR 1254, Method: STANDARD PLATE.

The source of these data is PubChem BioAssay AID1259407 (Chemical Carcinogenesis Research Information System (CCRIS), 2018).

Activity calls are given as the source filed them. How the calls were made is not given here.

Turning to `O=[N+]([O-])c1ccc2c3c(cccc13)CC2`, the mutagenic call is, setting by setting: under setting [1], “active; positive”; (Test System: AMES SALMONELLA TYPHIMURIUM, Strain/Indicator: TA98, Metabolic Activation: RAT, LIVER, S-9, AROCLOR 1254, Method: STANDARD PLATE) “active; positive”; (Test System: AMES SALMONELLA TYPHIMURIUM, Strain/Indicator: TA98, Metabolic Activation: RAT, LIVER, S-9, KC500 OR PHENOBARBITAL, Method: LIQUID SUSPENSION) “active; positive”; under setting [2], “active; positive”; (Test System: AMES SALMONELLA TYPHIMURIUM, Strain/Indicator: TA100, Metabolic Activation: RAT, LIVER, S-9, AROCLOR 1254, Method: STANDARD PLATE) “active; positive”; (Test System: AMES SALMONELLA TYPHIMURIUM, Strain/Indicator: TA100, Metabolic Activation: RAT, LIVER, S-9, KC500 OR PHENOBARBITAL, Method: LIQUID SUSPENSION) “active; positive”. For the same compound, the mutagenic call (Test System: E. COLI, Strain/Indicator: WP2 UVRA, Metabolic Activation: NONE, Method: STANDARD PLATE) is “inactive; negative” and the mutagenic call (Test System: E. COLI, Strain/Indicator: WP2 UVRA, Metabolic Activation: RAT, LIVER, S-9, Method: STANDARD PLATE) is “inactive; negative”.
`Cc1c(O)cc2c(c1O)C(=O)c1ccccc1C2=O`: the mutagenic call is “inactive; negative” under setting [3]; “active; positive” (Test System: AMES SALMONELLA TYPHIMURIUM, Strain/Indicator: TA98, Metabolic Activation: RAT, LIVER, S-9, AROCLOR 1254, Method: PREINCUBATION); “active; positive” (Test System: AMES SALMONELLA TYPHIMURIUM, Strain/Indicator: TA98, Metabolic Activation: RAT, LIVER, S-9, PCB, Method: PREINCUBATION); “inactive; negative” under setting [4]; “active; positive” (Test System: AMES SALMONELLA TYPHIMURIUM, Strain/Indicator: TA100, Metabolic Activation: RAT, LIVER, S-9, AROCLOR 1254, Method: PREINCUBATION); “active; positive” (Test System: AMES SALMONELLA TYPHIMURIUM, Strain/Indicator: TA100, Metabolic Activation: RAT, LIVER, S-9, PCB, Method: PREINCUBATION). The mutagenic call by setting is: under setting [5], “inactive; negative”; (Test System: AMES SALMONELLA TYPHIMURIUM, Strain/Indicator: TA1537, Metabolic Activation: RAT, LIVER, S-9, AROCLOR 1254, Method: PREINCUBATION) “active; positive”; (Test System: UDS RODENT HEPATOCYTES, Strain/Indicator: THY INCORP, Metabolic Activation: NONE) “active; positive”.
In the case of `CCOP(=S)(OCC)SCSC(C)(C)C`, the mutagenic call runs as follows: (Test System: AMES SALMONELLA TYPHIMURIUM, Strain/Indicator: TA98, Metabolic Activation: HAMSTER, LIVER, S-9, AROCLOR 1254 (10%), Method: PREINCUBATION) “inactive; negative”; under setting [3], “inactive; negative”; (Test System: AMES SALMONELLA TYPHIMURIUM, Strain/Indicator: TA98, Metabolic Activation: RAT, LIVER, S-9, AROCLOR 1254 (10%), Method: PREINCUBATION) “inactive; negative”; (Test System: AMES SALMONELLA TYPHIMURIUM, Strain/Indicator: TA100, Metabolic Activation: HAMSTER, LIVER, S-9, AROCLOR 1254 (10%), Method: PREINCUBATION) “inactive; negative”; under setting [4], “inactive; negative”; (Test System: AMES SALMONELLA TYPHIMURIUM, Strain/Indicator: TA100, Metabolic Activation: RAT, LIVER, S-9, AROCLOR 1254 (10%), Method: PREINCUBATION) “inactive; negative”. Also, the mutagenic call was “inactive; negative” (Test System: AMES SALMONELLA TYPHIMURIUM, Strain/Indicator: TA1535, Metabolic Activation: HAMSTER, LIVER, S-9, AROCLOR 1254 (10%), Method: PREINCUBATION); “inactive; negative” (Test System: AMES SALMONELLA TYPHIMURIUM, Strain/Indicator: TA1535, Metabolic Activation: NONE, Method: PREINCUBATION); “inactive; negative” (Test System: AMES SALMONELLA TYPHIMURIUM, Strain/Indicator: TA1535, Metabolic Activation: RAT, LIVER, S-9, AROCLOR 1254 (10%), Method: PREINCUBATION); “inactive; negative” (Test System: AMES SALMONELLA TYPHIMURIUM, Strain/Indicator: TA1537, Metabolic Activation: HAMSTER, LIVER, S-9, AROCLOR 1254 (10%), Method: PREINCUBATION); “inactive; negative” under setting [5]; “inactive; negative” (Test System: AMES SALMONELLA TYPHIMURIUM, Strain/Indicator: TA1537, Metabolic Activation: RAT, LIVER, S-9, AROCLOR 1254 (10%), Method: PREINCUBATION).
On to `NC(=O)OC[C@H](O)[C@@H](O)[C@H](N)C(=O)N[C@H](C(=O)[O-])[C@H]1O[C@@H](n2cc(C(=O)[O-])c(=O)[nH]c2=O)[C@H](O)[C@@H]1O.[Zn+2]`, for which the mutagenic call was “active; positive” under setting [2] and “active; positive” (Test System: AMES SALMONELLA TYPHIMURIUM, Strain/Indicator: TA100, Metabolic Activation: S-9 MIX, Method: STANDARD PLATE).
In the case of `NCCc1c[nH]c2ccc(O)cc12`, under setting [4], the mutagenic call was “inactive; negative”.
For `O=C1NC(=O)C(CBr)=C1Cl`, the mutagenic call under setting [2] was “active; positive”.
In the case of `CC(=O)c1cc2c(cc1C)C(C)(C)C(C)C2C(C)C` (stereo not drawn), the mutagenic call reads like this: under setting [6], “inactive; negative”; under setting [7], “inactive; negative”; under setting [1], “inactive; negative”; (Test System: AMES SALMONELLA TYPHIMURIUM, Strain/Indicator: TA98, Metabolic Activation: RAT LIVER S-9, AROCLOR 1254, Method: STANDARD PLATE) “inactive; negative”; under setting [2], “inactive; negative”; under setting [8], “inactive; negative”. For the same compound, the mutagenic call runs as follows: under setting [9], “inactive; negative”; under setting [10], “inactive; negative”.
As to `CC1COCc2cc3c(cc21)C(C)(C)C(C)C3(C)C` (stereo not drawn), the mutagenic call under setting [6] is “inactive; negative”; the mutagenic call under setting [7] was “inactive; negative”; the mutagenic call under setting [1] is “inactive; negative”; the mutagenic call (Test System: AMES SALMONELLA TYPHIMURIUM, Strain/Indicator: TA98, Metabolic Activation: RAT LIVER S-9,AROCLOR 1254, Method: STANDARD PLATE) is “inactive; negative”; the mutagenic call under setting [2] is “inactive; negative”; the mutagenic call under setting [8] is “inactive; negative”. The mutagenic call under setting [9] is “inactive; negative”; the mutagenic call under setting [10] was “inactive; negative”; the mutagenic call (Test System: AMES SALMONELLA TYPHIMURIUM, Strain/Indicator: TA1535, Metabolic Activation: NONE, Method: STANDARD PLATE) is “inactive; negative”; the mutagenic call (Test System: AMES SALMONELLA TYPHIMURIUM, Strain/Indicator: TA1535, Metabolic Activation: RAT LIVER S-9, AROCLOR 1254, Method: STANDARD PLATE) was “inactive; negative”; the mutagenic call (Test System: AMES SALMONELLA TYPHIMURIUM, Strain/Indicator: TA1537, Metabolic Activation: NONE, Method: STANDARD PLATE) is “inactive; negative”; the mutagenic call (Test System: AMES SALMONELLA TYPHIMURIUM, Strain/Indicator: TA1537, Metabolic Activation: RAT LIVER S-9, AROCLOR 1254, Method: STANDARD PLATE) is “inactive; negative”. Further, the mutagenic call (Test System: AMES SALMONELLA TYPHIMURIUM, Strain/Indicator: TA1538, Metabolic Activation: NONE, Method: STANDARD PLATE) is “inactive; negative”; the mutagenic call (Test System: AMES SALMONELLA TYPHIMURIUM, Strain/Indicator: TA1538, Metabolic Activation: RAT LIVER S-9, AROCLOR 1254, Method: STANDARD PLATE) is “inactive; negative”; the mutagenic call (Test System: ESCHERICHIA COLI, Strain/Indicator: WP2 UVR A, Metabolic Activation: NONE, Method: STANDARD PLATE) is “inactive; negative”; the mutagenic call (Test System: ESCHERICHIA COLI, Strain/Indicator: WP2 UVR A, Metabolic Activation: RAT LIVER S-9, AROCLOR 1254, Method: STANDARD PLATE) was “inactive; negative”; the mutagenic call (Test System: UDS RAT HEPATOCYTES, Metabolic Activation: NONE, Method: NET NUCLEAR GRAIN COUNT) was “inactive; negative”.
